Reference: patent US10519099B2, “Cystobactamides” (priority 2014, dated 2019)
Converted amounts (≈) assume the structure as drawn. Like-named read-outs stand apart in the source and are kept apart here.

Tests used:
[1] = test system: Burkholderia cenocepacia DSM-16553; assay: MIC microdilution, Burkholderia cenocepacia DSM-16553; type: cell-based
Procedure: (§1) Indicator strains used in susceptibility assays were either part of our strain collection or purchased from the German Collection of Microorgansims and Cell Cultures (DSMZ) or from the American Type Culture Collection (ATCC). E. coli strain WT and corresponding E. coli mutants were kindly provided by Prof. Dr. P. Heisig, Pharmaceutical Biology and Microbiology, University of Hamburg. E. coli strains JW0401-1 (WT) and Δtsx were obtained from the CGSC collection.
(§2) MIC values were determined in standardized microdilution assays. Overnight cultures were diluted in the appropriate growth medium to achieve an inoculum of 10^4-10^6 cfu/mL. Yeasts were grown in Myc medium (1% phytone peptone, 1% glucose, 50 mM HEPES, pH 7.0), S. pneumonia and Enterococcus spp. in tryptic soy broth (TSB: 1.7% peptone casein, 0.3% peptone soymeal, 0.25% glucose, 0.5% NaCl, 0.25% K2HPO4; pH 7.3); M. smegmatis in Middlebrook 7H9 medium supplemented with 10% Middlebrook ADC enrichment and 2 ml/I glycerol). All other listed bacteria were grown in Müller-Hinton broth (0.2% beef infusion solids, 1.75% casein hydrolysate, 0.15% starch, pH 7.4). […] Growth inhibition was assessed by visual inspection and the MIC was defined as the lowest concentration of compound that inhibited visible growth.

[2] = test system: Enterococcus faecalis ATCC29212; assay: MIC microdilution, Enterococcus faecalis ATCC29212; type: cell-based
Procedure: as §1, §2

[3] = test system: Escherichia coli MI-4 [gyrA(S83L), parC(S80I)]; assay: MIC microdilution, E. coli MI-4 [gyrA(S83L), parC(S80I)]; type: cell-based; details: read-out: MIC Escherichia coli MI-4 [gyrA(S83L), parC(S80I)]
Procedure: as §1, §2

[4] = test system: Pseudomonas aeruginosa ATCC27853; assay: MIC microdilution, P. aeruginosa ATCC27853; type: cell-based; details: Pseudomonas aeruginosa
Procedure: as §1
(§3) MIC values were determined in standardized microdilution assays. Overnight cultures were diluted in the appropriate growth medium to achieve an inoculum of 10^4-10^6 cfu/mL. Yeasts were grown in Myc medium (1% phytone peptone, 1% glucose, 50 mM HEPES, pH 7.0), S. pneumonia and Enterococcus spp. in tryptic soy broth (TSB: 1.7% peptone casein, 0.3% peptone soymeal, 0.25% glucose, 0.5% NaCl, 0.25% K2HPO4; pH 7.3); M. smegmatis in Middlebrook 7H9 medium supplemented with 10% Middlebrook ADC enrichment and 2 ml/I glycerol). All other listed bacteria were grown in Müller-Hinton broth (0.2% beef infusion solids, 1.75% casein hydrolysate, 0.15% starch, pH 7.4). Cystobactamides and reference drugs were added directly to the cultures in sterile 96-well plates as duplicates and serial dilutions were prepared. Microorganisms were grown on a microplate shaker (750 rpm, 30-37° C., 18-48 h), except S. pneumonia, which was grown at non-shaking conditions (37° C., 5% CO2, 18 h). Growth inhibition was assessed by visual inspection and the MIC was defined as the lowest concentration of compound that inhibited visible growth.

[5] = test system: Escherichia coli ATCC35218; assay: MIC microdilution, E. coli ATCC35218; type: cell-based
Procedure: as §1, §2

[6] = test system: Klebsiella pneumoniae DSM-30104; assay: MIC microdilution, Klebsiella pneumoniae DSM-30104; type: cell-based
Procedure: as §1, §2

[7] = test system: Candida albicans DSM-1665; assay: MIC microdilution, Candida albicans DSM-1665; type: cell-based
Procedure: as §1, §2

[8] = test system: P. aeruginosa DSM-24600 (ESBL); assay: MIC microdilution, P. aeruginosa DSM-24600 (ESBL); type: cell-based, Pseudomonas aeruginosa; details: Pseudomonas aeruginosa, DSM24600
Procedure: as §1, §3

[9] = test system: Serratia marcescens DSM-30121; assay: MIC microdilution, Serratia marcescens DSM-30121; type: cell-based; details: Serratia marcescens
Procedure: as §1, §3

[10] = test system: Escherichia coli DSM-12242 (NAL^R); assay: MIC microdilution, E. coli DSM-12242 (NAL^R); type: cell-based; details: DSM12242, read-out: MIC Escherichia coli DSM-12242 (NAL^R)
Procedure: as §1, §2

[11] = test system: Chromobacterium violaceum DSM-30191; assay: MIC microdilution, Chromobacterium violaceum DSM-30191; type: cell-based
Procedure: as §1, §2

[12] = test system: Escherichia coli WT-3.2 [gyrA(D87G)]; assay: MIC microdilution, E. coli WT-3.2 [gyrA(D87G)]; type: cell-based; details: read-out: MIC Escherichia coli WT-3.2 [gyrA(D87G)]
Procedure: as §1, §2

[13] = test system: Citrobacter freundii DSM-30039; assay: MIC microdilution, C. freundii DSM-30039; type: cell-based; details: Citrobacter freundii, DSM30039
Procedure: as §1, §3

Pichia anomala DSM-6766 = assay: MIC microdilution, Pichia anomala DSM-6766; type: cell-based; details: Hansenula anomala
Procedure: as §1, §2

E. coli WT = assay: MIC microdilution, E. coli WT; type: cell-based, Escherichia coli; details: Escherichia coli
Procedure: as §1, §3

[14] = test system: E. coli WT-III [marRΔ74bp]; assay: MIC microdilution, E. coli WT-III [marRΔ74bp]; type: cell-based, Escherichia coli; details: for MIC E. coli WT-III [marRΔ74bp]: Gram-negative set; for MIC Escherichia coli WTIII (marRΔ74bp): larger panel
Procedure: as §1, §3

[15] = test system: Micrococcus luteus DSM-1790; assay: MIC microdilution, Micrococcus luteus DSM-1790; type: cell-based
Procedure: as §1, §2

[16] = test system: Pseudomonas aeruginosa DSM-24599; assay: MIC microdilution, P. aeruginosa DSM-24599; type: cell-based; details: Pseudomonas aeruginosa
Procedure: as §1, §3

[17] = test system: Acinetobacter baumannii DSM-30008; assay: MIC microdilution, A. baumannii DSM-30008; type: cell-based; details: Acinetobacter baumannii, DSM30008
Procedure: as §1, §3

[18] = test system: Pseudomonas aeruginosa DSM-46316 (ESBL); assay: MIC microdilution, P. aeruginosa DSM-46316 (ESBL); type: cell-based; details: Pseudomonas aeruginosa
Procedure: as §1, §3

E. coli DSM-1116 = assay: MIC microdilution, E. coli DSM-1116; type: cell-based, Escherichia coli; details: Escherichia coli, DSM1116
Procedure: as §1, §3

Bacillus subtilis DSM-10 = assay: MIC microdilution, Bacillus subtilis DSM-10; type: cell-based
Procedure: as §1, §2

[19] = test system: Streptococcus pneumoniae DSM-20566; assay: MIC microdilution, Streptococcus pneumoniae DSM-20566; type: cell-based
Procedure: as §1, §2

[20] = test system: Pseudomonas aeruginosa PA14; assay: MIC microdilution, P. aeruginosa PA14; type: cell-based; details: Pseudomonas aeruginosa
Procedure: as §1, §3

[21] = Gram-negative set, read-out: MIC P. aeruginosa DSM-24600 (ESBL)
[22] = larger panel, read-out: MIC Pseudomonas aeruginosa DSM-24600 (ESBL)
[23] = Gram-negative set, read-out: MIC C. freundii DSM-30039
[24] = larger panel, read-out: MIC Citrobacter freundii DSM-30039
[25] = Gram-negative set, read-out: MIC E. coli WT
[26] = larger panel, read-out: MIC Escherichia coli WT
[27] = Gram-negative set, read-out: MIC A. baumannii DSM-30008
[28] = larger panel, read-out: MIC Acinetobacter baumannii DSM-30008
[29] = Gram-negative set, read-out: MIC E. coli DSM-1116
[30] = larger panel, read-out: MIC Escherichia coli DSM-1116

SMILES	MIC [3]	MIC [8, 21]	MIC [8, 22]	MIC [10]	MIC [12]	MIC [13, 23]	MIC [13, 24]	MIC (E. coli WT; [25])	MIC (E. coli WT; [26])	MIC E. coli WT-III [marRΔ74bp] [14]	MIC Escherichia coli WTIII (marRΔ74bp) [14]	MIC [17, 27]	MIC [17, 28]	MIC (E. coli DSM-1116; [29])	MIC (E. coli DSM-1116; [30])	also measured
O=C(O)c1cn(C2CC2)c2cc(N3CCNCC3)c(F)cc2c1=O [CP, Ciprofloxacin, reference compound]	0.8 µg/mL (≈ 2.41 µM)	3.2 µg/mL (≈ 9.66 µM)	3.2 µg/mL (≈ 9.66 µM)	0.05 µg/mL (≈ 0.151 µM)	0.4 µg/mL (≈ 1.21 µM)	0.003 µg/mL (≈ 0.00905 µM)	0.003 µg/mL (≈ 0.00905 µM)	0.013 µg/mL (≈ 0.0392 µM)	0.013 µg/mL (≈ 0.0392 µM)	0.1 µg/mL (≈ 0.302 µM)	0.1 µg/mL (≈ 0.302 µM)	0.8 µg/mL (≈ 2.41 µM)	0.2 to 0.4 µg/mL (≈ 0.604 to 1.21 µM)	0.01 µg/mL (≈ 0.0302 µM)	0.013 µg/mL (≈ 0.0392 µM)	MIC ([1]; DSM16553, larger panel, read-out: MIC Burkholderia cenocepacia DSM-16553): > 6.4 µg/mL; MIC ([2]; ATCC29212, larger panel, read-out: MIC Enterococcus faecalis ATCC29212): 0.8 µg/mL (≈ 2.41 µM); MIC ([4]; ATCC27853, larger panel, read-out: MIC Pseudomonas aeruginosa ATCC27853): 0.1 to 0.2 µg/mL (≈ 0.302 to 0.604 µM); MIC ([5]; ATCC35218, larger panel, read-out: MIC Escherichia coli ATCC35218): 0.013 µg/mL (≈ 0.0392 µM); MIC ([6]; DSM30104, larger panel, read-out: MIC Klebsiella pneumoniae DSM-30104): 0.025 µg/mL (≈ 0.0754 µM); MIC ([7]; DSM1665, larger panel, read-out: MIC Candida albicans DSM-1665): > 6.4 µg/mL; MIC ([9]; DSM30121, larger panel, read-out: MIC Serratia marcescens DSM-30121): 0.1 µg/mL (≈ 0.302 µM); MIC ([11]; DSM30191, larger panel, read-out: MIC Chromobacterium violaceum DSM-30191): 0.006 to 0.013 µg/mL (≈ 0.0181 to 0.0392 µM); MIC (Pichia anomala DSM-6766; DSM6766, larger panel, read-out: MIC Pichia anomala DSM-6766): > 6.4 µg/mL; MIC ([15]; DSM1790, larger panel, read-out: MIC Micrococcus luteus DSM-1790): 0.8 to 1.6 µg/mL (≈ 2.41 to 4.83 µM); MIC ([16]; DSM24599, larger panel, read-out: MIC Pseudomonas aeruginosa DSM-24599): > 6.4 µg/mL; MIC ([18]; DSM46316, larger panel, read-out: MIC Pseudomonas aeruginosa DSM-46316 (ESBL)): 0.1 µg/mL (≈ 0.302 µM); MIC (Bacillus subtilis DSM-10; DSM10, larger panel, read-out: MIC Bacillus subtilis DSM-10): 0.1 µg/mL (≈ 0.302 µM); MIC ([19]; DSM20566, larger panel, read-out: MIC Streptococcus pneumoniae DSM-20566): 0.8 to 1.6 µg/mL (≈ 2.41 to 4.83 µM); MIC ([20]; PA14, larger panel, read-out: MIC Pseudomonas aeruginosa PA14): 0.1 µg/mL (≈ 0.302 µM)
COC(C(N)=O)C(NC(=O)c1ccc(NC(=O)c2ccc([N+](=O)[O-])cc2)cc1)C(=O)Nc1ccc(C(=O)Nc2ccc(C(=O)Nc3ccc(C(=O)O)cc3OC(C)C)c(O)c2OC(C)C)cc1 (stereo not drawn) [Cys 919-2]	2 to 4 µg/mL (≈ 2.17 to 4.35 µM)	64 µg/mL (≈ 69.6 µM)	64 µg/mL (≈ 69.6 µM)	1 to 2 µg/mL (≈ 1.09 to 2.17 µM)	4 µg/mL (≈ 4.35 µM)	1 µg/mL (≈ 1.09 µM)	1 µg/mL (≈ 1.09 µM)	0.5 µg/mL (≈ 0.544 µM)	0.5 µg/mL (≈ 0.544 µM)	>64 µg/mL	64 µg/mL (≈ 69.6 µM)	8 µg/mL (≈ 8.7 µM)	8 µg/mL (≈ 8.7 µM)	0.5 µg/mL (≈ 0.544 µM)	1 µg/mL (≈ 1.09 µM)	MIC ([1]; DSM16553, read-out: MIC Burkholderia cenocepacia DSM-16553): > 64 µg/mL; MIC ([2]; ATCC29212, read-out: MIC Enterococcus faecalis ATCC29212): 0.1 µg/mL (≈ 0.109 µM); MIC ([4]; ATCC27853, read-out: MIC Pseudomonas aeruginosa ATCC27853): > 64 µg/mL; MIC ([5]; ATCC35218, read-out: MIC Escherichia coli ATCC35218): 1 µg/mL (≈ 1.09 µM); MIC ([6]; DSM30104, read-out: MIC Klebsiella pneumoniae DSM-30104): > 64 µg/mL; MIC ([7]; DSM1665, read-out: MIC Candida albicans DSM-1665): > 64 µg/mL; MIC ([9]; DSM30121, read-out: MIC Serratia marcescens DSM-30121): > 64 µg/mL; MIC ([11]; DSM30191, read-out: MIC Chromobacterium violaceum DSM-30191): 15 µg/mL (≈ 16.3 µM); MIC (Pichia anomala DSM-6766; DSM6766, read-out: MIC Pichia anomala DSM-6766): > 64 µg/mL; MIC ([15]; DSM1790, read-out: MIC Micrococcus luteus DSM-1790): 0.1 to 0.2 µg/mL (≈ 0.109 to 0.217 µM); MIC ([16]; DSM24599, read-out: MIC Pseudomonas aeruginosa DSM-24599): > 64 µg/mL; MIC ([18]; DSM46316, read-out: MIC Pseudomonas aeruginosa DSM-46316 (ESBL)): > 64 µg/mL; MIC (Bacillus subtilis DSM-10; DSM10, read-out: MIC Bacillus subtilis DSM-10): 0.1 µg/mL (≈ 0.109 µM); MIC ([19]; DSM20566, read-out: MIC Streptococcus pneumoniae DSM-20566): 0.1 µg/mL (≈ 0.109 µM); MIC ([20]; PA14, read-out: MIC Pseudomonas aeruginosa PA14): > 64 µg/mL
